Source: patent publication US9809587B2, “Pesticidally active heterocyclic derivatives with sulphur containing substituents” (Syngenta Participations AG, priority 2014, dated 2017)

What was measured:
Format in all cases: in vivo
[1] = system: Spodoptera littoralis (Egyqptian Cotton Leaf Worm); assay: Spodoptera littoralis (Egyptian cotton leaf worm), sprayed cotton leaf discs; conditions: foliar, 72 h, application rate of 200 ppm, L1 larvae on cotton leaf discs, 3 days after infestation
Experimental: Example B7: Spodoptera littoralis (Egyqptian Cotton Leaf Worm)
Cotton leaf discs were placed on agar in 24-well microtiter plates and sprayed with aqueous test solutions prepared from 10′000 ppm DMSO stock solutions. After drying the leaf discs were infested with five L1 larvae. The samples were assessed for mortality, anti-feedant effect, and growth inhibition in comparison to untreated samples 3 days after infestation. Control of Spodoptera littoralis by a test sample is when at least one of mortality, anti-feedant effect, and growth inhibition is higher than the untreated sample.

[2] = system: Myzus persicae (Green Peach Aphid); assay: Myzus persicae (green peach aphid), sprayed sunflower leaf discs; conditions: foliar, 144 h, application rate of 200 ppm, mixed ages on sunflower leaf discs, 6 days after infestation
Experimental: Example B4: Myzus persicae (Green Peach Aphid)
Sunflower leaf discs were placed on agar in a 24-well microtiter plate and sprayed with aqueous test solutions prepared from 10′000 ppm DMSO stock solutions. After drying, the leaf discs were infested with an aphid population of mixed ages. The samples were assessed for mortality 6 days after infestation.

[3] = system: Diabrotica balteata (Corn Root Worm); assay: Diabrotica balteata (corn root worm), sprayed maize sprouts; conditions: 96 h, application rate of 200 ppm, L2 larvae on maize sprouts, 4 days after infestation
Experimental: Example B2: Diabrotica balteata (Corn Root Worm)
Maize sprouts, placed on an agar layer in 24-well microtiter plates were treated with aqueous test solutions prepared from 10′000 ppm DMSO stock solutions by spraying. After drying, the plates were infested with L2 larvae (6 to 10 per well). The samples were assessed for mortality and growth inhibition in comparison to untreated samples 4 days after infestation.

[4] = system: Plutella xylostella (Diamond Back Moth); assay: Plutella xylostella (diamond back moth), treated artificial diet; conditions: 120 h, application rate of 200 ppm, L2 larvae on artificial diet, 5 days after infestation, read-out: effect in at least one of the two categories (mortality or growth inhibition)
Experimental: Example B6: Plutella xylostella (Diamond Back Moth)
24-well microtiter plates with artificial diet were treated with aqueous test solutions prepared from 10′000 ppm DMSO stock solutions by pipetting. After drying, the plates were infested with L2 larvae (10 to 15 per well). The samples were assessed for mortality and growth inhibition in comparison to untreated samples 5 days after infestation.
The following compounds gave an effect of at least 80% in at least one of the two categories (mortality or growth inhibition) at an application rate of 200 ppm: […]

[5] = system: Euschistus heros (Neotropical Brown Stink Bug); assay: Euschistus heros (neotropical brown stink bug), sprayed soybean leaf; conditions: 120 h, application rate of 200 ppm, N-2 nymphs on soybean leaf, 5 days after infestation
Experimental: Example B3: Euschistus heros (Neotropical Brown Stink Bug)
Soybean leaf on agar in 24-well microtiter plates were sprayed with aqueous test solutions prepared from 10′000 ppm DMSO stock solutions. After drying the leaf were infested with N-2 nymphs. The samples were assessed for mortality in comparison to untreated samples 5 days after infestation.

CCS(=O)(=O)c1cc(-c2ccc(OC)nc2)cnc1-c1nc2cc(C(F)(F)F)ncc2n1C [Compound P1, 2-[3-ethylsulfonyl-5-(6-methoxy-3-pyridyl)-2-pyridyl]-3-methyl-6-(trifluoromethyl)imidazo[4,5-c]pyridine]
≥ 80%: percent control (mortality, anti-feedant effect or growth inhibition) at 200 ppm [1] | mortality at 200 ppm [2] | mortality at 200 ppm [3] | percent effect (mortality or growth inhibition) at 200 ppm [4]

CCS(=O)(=O)c1cc(-c2cnc(Cl)c(C)c2)cnc1-c1nc2cc(C(F)(F)F)ncc2n1C [Compound P4]
≥ 80%: percent control (mortality, anti-feedant effect or growth inhibition) at 200 ppm [1] | mortality at 200 ppm [2] | mortality at 200 ppm [5] | percent effect (mortality or growth inhibition) at 200 ppm [4]

CCS(=O)(=O)c1cc(-c2ccc(-c3ccc(F)cc3)nc2)cnc1-c1nc2cc(C(F)(F)F)ncc2n1C [Compound P12]
≥ 80%: percent control (mortality, anti-feedant effect or growth inhibition) at 200 ppm [1] | mortality at 200 ppm [2] | mortality at 200 ppm [5] | mortality at 200 ppm [3] | percent effect (mortality or growth inhibition) at 200 ppm [4]

CCS(=O)(=O)c1cc(-n2nc(C)cc2C)cnc1-c1nc2cc(C(F)(F)F)ncc2n1C [Compound P15]
≥ 80%: percent control (mortality, anti-feedant effect or growth inhibition) at 200 ppm [1] | mortality at 200 ppm [2] | mortality at 200 ppm [5] | mortality at 200 ppm [3] | percent effect (mortality or growth inhibition) at 200 ppm [4]

CCS(=O)(=O)c1cc(-c2nc(C)cc(C3CC3)n2)cnc1-c1nc2cc(C(F)(F)F)ncc2n1C [Compound P23, 2-[5-(4-cyclopropyl-6-methyl-pyrimidin-2-yl)-3-ethylsulfonyl-2-pyridyl]-3-methyl-6-(trifluoromethyl)imidazo[4,5-c]pyridine]
≥ 80%: percent control (mortality, anti-feedant effect or growth inhibition) at 200 ppm [1] | mortality at 200 ppm [2] | mortality at 200 ppm [5] | mortality at 200 ppm [3] | percent effect (mortality or growth inhibition) at 200 ppm [4]

CCS(=O)(=O)c1cc(-c2cnc3nc(C(F)(F)F)ccn23)cnc1-c1nc2cc(C(F)(F)F)ncc2n1C [Compound P36]
≥ 80%: percent control (mortality, anti-feedant effect or growth inhibition) at 200 ppm [1] | mortality at 200 ppm [2] | mortality at 200 ppm [5] | mortality at 200 ppm [3] | percent effect (mortality or growth inhibition) at 200 ppm [4]

CCS(=O)(=O)c1cc(-c2cnc3nc(C(F)(F)F)cnn23)cnc1-c1nc2cc(C(F)(F)F)ncc2n1C [Compound P38]
≥ 80%: percent control (mortality, anti-feedant effect or growth inhibition) at 200 ppm [1] | mortality at 200 ppm [5] | mortality at 200 ppm [3] | percent effect (mortality or growth inhibition) at 200 ppm [4]

CCS(=O)(=O)c1cc(-c2ncccc2OC(F)F)cnc1-c1nc2cc(C(F)(F)F)ncc2n1C [Compound P43]
≥ 80%: percent control (mortality, anti-feedant effect or growth inhibition) at 200 ppm [1] | mortality at 200 ppm [2] | mortality at 200 ppm [5] | mortality at 200 ppm [3] | percent effect (mortality or growth inhibition) at 200 ppm [4]

CCS(=O)(=O)c1cc(-c2cnc3ccccn23)cnc1-c1nc2cc(C(F)(F)F)ncc2n1C [Compound P51]
≥ 80%: percent control (mortality, anti-feedant effect or growth inhibition) at 200 ppm [1] | mortality at 200 ppm [2] | mortality at 200 ppm [5] | percent effect (mortality or growth inhibition) at 200 ppm [4]

CCS(=O)(=O)c1cc(-c2ncc(N)nc2C)cnc1-c1nc2cc(C(F)(F)F)ncc2n1C [Compound P63]
≥ 80%: percent control (mortality, anti-feedant effect or growth inhibition) at 200 ppm [1] | mortality at 200 ppm [2] | mortality at 200 ppm [5] | percent effect (mortality or growth inhibition) at 200 ppm [4]

CCS(=O)(=O)c1cc(-c2ccsc2C)cnc1-c1nc2cc(C(F)(F)F)ncc2n1C [Compound P68]
≥ 80%: percent control (mortality, anti-feedant effect or growth inhibition) at 200 ppm [1] | mortality at 200 ppm [5]

CCS(=O)(=O)c1cc(-c2ccc(C)s2)cnc1-c1nc2cc(C(F)(F)F)ncc2n1C [Compound P69]
≥ 80%: percent control (mortality, anti-feedant effect or growth inhibition) at 200 ppm [1] | mortality at 200 ppm [2] | mortality at 200 ppm [5] | percent effect (mortality or growth inhibition) at 200 ppm [4]

CCS(=O)(=O)c1cc(-c2ncc(OC)cn2)cnc1-c1nc2cc(C(F)(F)F)ncc2n1C [Compound P97]
≥ 80%: percent control (mortality, anti-feedant effect or growth inhibition) at 200 ppm [1] | mortality at 200 ppm [2] | mortality at 200 ppm [5] | percent effect (mortality or growth inhibition) at 200 ppm [4]
